Where a name gives a salt, the structure may show the parent alone.
Experiments:
2N4R tau^C291S,C322S = 2N4R tau^C291S,C322S (Homo sapiens, UniProt P10636, C608S/C639S); assay: In vitro seeded aggregation assay of cysteine-free tau mutant (ThT fluorescence); type: biochemical; conditions: mole ratios 1:3 and 1:10
Description: (§1) Seeded aggregation assays were performed as described above but with 1.0% of the well volume occupied by the seeding mixture sonicated for 1 minute. The assays were performed in the presence and absence of compounds, and working concentrations ranged from 0-250 μM compound. Analyses of the fluorescence curves were performed using Graphpad PRISM version 8. Fluorescence data were fit to a sigmoid function. The number of hours corresponding to half-maximal ThT FluorescenceTM as well as the span of fluorescence intensity (Span) were determined for each sigmoid curve. Statistically significant differences were determined by one-way ANOVA analysis with Dunnett's multiple comparison test or unpaired t-test. The described seeded aggregation protocol was likewise applied to 3R Tau and the […]/[…] mutant of 2N4R Tau.

3R tau (tau^3R) = assay: In vitro seeded aggregation assay of 3R tau (ThT fluorescence); type: biochemical; conditions: mole ratios 1:3 and 1:10
Description: as §1

2N4R tau = assay: In vitro seeded aggregation/fibrillization assay of 2N4R tau (ThT fluorescence); type: biochemical; conditions: tau:compound mole ratios 1:3 and 1:10
Description: Aggregation of 2N4R Tau was performed using a previously published co-factor-free aggregation protocol, with a few modifications (Reference: Chakraborty, P. et al. Co-factor-free aggregation of tau into seeding-competent RNA-sequestering amyloid fibrils. Nat. Commun. 12, 4231 (2021)). Aggregation experiments used the Tau protein stock prepared in 25 mM HEPES pH 7.4, 1 mM TCEP. Stocks of compounds were prepared in aggregation buffer (25 mM HEPES, 10 mM KCl, 5 mM MgCl2, pH 7.2) or in DMSO (10 mM compound).
To prepare the Tau fibril seeds by de novo aggregation, 2N4R Tau at a monomer concentration of 25 μM was diluted in aggregation buffer. The working concentration of TCEP in the aggregation mixture was <25 μM after dilution of the stock. To this mixture, Thioflavin T (ThT) was added to a final concentration of 50 μM. A total volume of 100 μL of the Tau-ThT mixture was incubated in a well of a 96-well microplate (Greiner Bio-one), in the presence of two polytetrafluoroethylene beads. The microplate was subjected to a program implemented in a Tecan Spark plate reader that involved incubating at 37° C., with intervals of double orbital shaking and ThT fluorescence emission measurement. The excitation wavelength for ThT was set as 430 nm and the emission wavelength was 485 nm. Details of this plate reader program were published previously (Reference: Chakraborty, P. et al. Co-factor-free aggregation of tau into seeding-competent RNA-sequestering amyloid fibrils. Nat. Commun. 12, 4231 (2021)). […] The fibril-containing mixture collected from the microplate served as a seeding mixture for the subsequent aggregation assays.
Seeded aggregation assays were performed as described above but with 1.0% of the well volume occupied by the seeding mixture sonicated for 1 minute. The assays were performed in the presence and absence of compounds, and working concentrations ranged from 0-250 μM compound.
Analyses of the fluorescence curves were performed using Graphpad PRISM version 8. Fluorescence data were fit to a sigmoid function. The number of hours corresponding to half-maximal ThT Fluorescence™ as well as the span of fluorescence intensity (Span) were determined for each sigmoid curve. Statistically significant differences were determined by one-way ANOVA analysis with Dunnett's multiple comparison test or unpaired t-test.

Full-length 2N4R tau = molecular target: T1, Full-length 2N4R tau (Homo sapiens, UniProt P10636); assay: MS/MS analysis of compound adduct in tau; type: binding; conditions: 1:5 mole ratio tau:compound, overnight at 37° C.
T1 construct: Full-length 2N4R tau was incubated with Osimertinib mesylate
T1 sequence (P10636 1-441 isoform P10636-8): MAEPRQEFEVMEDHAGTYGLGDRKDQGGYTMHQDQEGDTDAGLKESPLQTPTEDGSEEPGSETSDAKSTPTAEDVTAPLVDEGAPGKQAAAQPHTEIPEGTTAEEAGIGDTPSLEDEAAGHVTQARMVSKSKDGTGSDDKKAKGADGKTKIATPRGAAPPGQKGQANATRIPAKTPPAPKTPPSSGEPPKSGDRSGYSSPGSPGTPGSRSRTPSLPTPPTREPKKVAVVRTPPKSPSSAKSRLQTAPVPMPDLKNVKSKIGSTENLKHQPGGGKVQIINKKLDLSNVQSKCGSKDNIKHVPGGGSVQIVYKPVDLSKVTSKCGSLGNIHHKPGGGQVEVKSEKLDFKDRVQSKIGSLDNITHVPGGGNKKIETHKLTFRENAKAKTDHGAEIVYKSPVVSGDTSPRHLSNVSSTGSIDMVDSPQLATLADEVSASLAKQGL
Description: Compounds (330 μM) were incubated with 2N4R Tau (65 μM) in buffer (25 mM HEPES, 10 mM KCl, 5 mM MgCl2, pH 7.2) for 16 h at 37° C. then stored at 4° C. until in-gel digestion.
In-gel digestion using trypsin (Sigma Aldrich) followed by extraction of peptides for mass spectrometry were performed as described previously (Reference: Shevchenko, A., Tomas, H., Havlis, J., Olsen, J. V., and Mann, M. (2006). In-gel digestion for mass spectrometric characterization of proteins and proteomes. Nature protocols 1, 2856-2860). Extracted peptides were resuspended in 2% acetonitrile and 0.05% TFA and analyzed using a Orbitrap Exploris 480 Mass Spectrometer (Thermo Fisher). The mass spectrometer used an emitter voltage at […] and ion transfer tube temperature at 300° C. Full scans were recorded in the range 350 to 1600 m/z with a mass resolution of 15000. Peptides were fragmented in the collision cell with a 28% energy setting. Tandem mass spectra were acquired using Scan Range Mode “Define First Mass” and isolation window of 1.6 m/z with a mass resolution of 15000.

Solubility in water = type: physicochemical; conditions: without cosolvents or counterions

2N4R tau^C291S,C322S, sequence (P10636 1-441 isoform P10636-8 C291S/C322S): as the sequence (P10636 1-441 isoform P10636-8) above, with C291S, C322S counted along it

## C=CC(=O)Nc1cc(Nc2nccc(-c3cn(C)c4ccccc34)n2)c(OC)cc1N(C)CCN(C)C [Osimertinib mesylate, N-[2-(2-Dimethylaminoethylmethylamino)-4-methoxy-5-[[4-(1-methylindol-3-yl)pyrimidin-2-yl]amino]phenyl]prop-2-enamide Mesylate Salt]
2N4R tau^C291S,C322S
  normalized Span of ThT fluorescence: not observed
  normalized Tm (midpoint of aggregation curve): do not show a clear dose-dependence
3R tau (tau^3R)
  normalized Span of ThT fluorescence: statistically lower normalized Span values
  normalized Tm (midpoint of aggregation curve): do not show a clear dose-dependence
2N4R tau
  inhibition of aggregation of tau^wt and tau^3R compared with cysteine-free tau^C291S,C322S: more effectively inhibits
Full-length 2N4R tau
  tau peptide spectrum matches showing compound-modified cysteine sites: about 350
Full-length 2N4R tau; tryptic digestion
  covalent modification of C291 and C322 (peptide mass spectra, LC-MS/MS): confirm covalent modification of cysteines in tau

## C=CC(=O)Nc1cc(Nc2nccc(-c3cn(C)c4ccccc34)n2)c(OC)cc1N(C)CCN(C)C [Osimertinib, N-[2-(2-Dimethylaminoethylmethylamino)-4-methoxy-5-[[4-(1-methylindol-3-yl)pyrimidin-2-yl]amino]phenyl]prop-2-enamide]
Solubility in water
  solubility in water: poor solubility in water
